Experimental data: publication PMC10525924, “Engineering and Purification of Microcin C7 Variants Resistant to Trypsin and Analysis of Their Biological Activity” (Antibiotics, 2023)
In brackets after ≈: the same amount, converted by molar mass. Where a SMILES comes first, the peptide text is derived from it.

How the values were obtained:
indicator bacteria = settings: second to seventh codons of mccA replaced; cited from earlier work
From the text: The heptapeptide precursor of McC, f-MRTGNAN, is encoded by the first gene in the mcc gene clusters, mccA [11]. Considering its protein nature, it is suitable for gene-based peptide engineering. Kazakov et al. first applied site-directed mutagenesis on the mccA gene, systematically replacing the second to seventh codons of mccA encoding 19 standard amino acids for a total of 114 mutations.

Yej^+rimL^− strain [1] = test: organism not typed; type: cell-based; settings: agar diffusion; for bacteriostatic activity after trypsin treatment, Yej^+rimL^− / Diameters of the inhibition zones, Trypsin-Treated Group, Yej^+rimL^−: supernatant treated with trypsin 50 μg/mL, 37 °C, 3 h; for Diameters of the inhibition zones, Trypsin-Untreated Group, Yej^+rimL^−: 200 μL fermentation supernatant, 1 × 10^5 CFU/mL, 4 °C 1 h then 37 °C 24 h, chloramphenicol 100 μL of 0.25 μg/mL; for Diameters of the inhibition zones, Trypsin-Untreated Group, Yej^+rimL^− / Diameters of the inhibition zones, Trypsin-Treated Group, Yej^+rimL^−: dash = no zone; for Diameters of the inhibition zones, Trypsin-Treated Group, Yej^+rimL^−: pH 6.8, 37 °C 24 h
From the text: To analyze the antimicrobial ability of the variants, we measured the inhibition zones of all 21 variants by the agar diffusion method. The peptide moiety of McC was recognized by a YejABEf-peptide transporter. The rimL contains an acetyltransferase domain homologous to MccE which can detoxify and provide resistance to McC [17]. The overexpression of the YejABEF gene cluster and rimL gene knockout made the strain hypersensitive to McC. Therefore, the Yej^+rimL^− strain was selected as the sensitive indicator bacterial strain.
(§1) The pH was adjusted to 6.8.
(§2) The fermentation supernatants and pure products were used to characterize the bacteriostatic effects of McC variants by the agar diffusion and microdilution methods. Yej^+rimL^− and E. coli K88 indicator bacteria were applied. The serotype of E. coli K88 was O149:K91, K88ac, a clinically isolated strain, and provided by the College of Veterinary Medicine, China Agricultural University. The indicated bacteria were diluted to 1 × 10^5 CFU/mL and added to plate medium cooled to 50 °C. Two hundred microliters of supernatants were added to each dish, and diffusion was performed at 4 °C for 1 h. After incubation at 37 °C for 24 h, the diameters of the inhibition zones were determined. One hundred microliters of 0.25 μg/mL chloramphenicol was used as a control. The MICs of the pure McC variants were determined by microdilution in a sterilized 96-well microplate. The McC variants were serially diluted 2 times in 96-well microplates with LB medium. The concentrations of the McC variants ranged from 0.125 to 100 µg/mL. Each well was inoculated with 10 μL of overnight bacterial culture at a concentration of 1.0 × 10^5 CFU/mL and incubated at 37 °C for 24 h. A microplate reader was used to automatically observe changes in absorbance at 600 nm in order to monitor bacterial growth. A positive control group (including inoculated medium) and a negative control group (with medium only) were included. The MIC was determined as the lowest concentration of McC variant that inhibited bacterial growth (preventing an increase in the absorbance reading). All tests were performed in triplicate.

[2] = HPLC retention time according to hydrophobicity; type: physicochemical; settings: chromatographic, C18 5 μm 9.4 × 250 mm; A 0.1% trichloroacetic acid, B 0.1% trichloroacetic acid with 90% acetonitrile; linear 5% B to 50% B; 1 mL/min; 35 °C; 280 nm; varies according to hydrophobicity
Procedure: To find the separation peaks of the variants, wildtype McC and blank control fermentation broth samples were tested by HPLC. The separation peaks with obvious differences (those with retention times of 11 min and 17 min) were purified and the antimicrobial activity was determined. […] Therefore, the molecular weight was further analyzed by mass spectrometry, and the separation peak at approximately 17 min was confirmed to be that of the desired purified McC. Since the mutations in this study involved only one amino acid and had few effects on the properties of the peptides, we predicted that the separation peaks of the variants should fluctuate around approximately 17 min according to their hydrophobicity. […] The purity of the purified variants was determined by HPLC to be greater than 80% (Table 3).
The lyophilized supernatants were dissolved in deionized water, filtered through 0.22 μm aqueous-phase filter membranes, and purified by high-performance liquid chromatography (HPLC, Agilent Technologies Inc., Palo Alto, CA, USA) with C18 column (5 μm 9.4 × 250 mm, Agilent Technologies Inc., Palo Alto, CA, USA). The mobile phase was composed of 0.1% (v/v) trichloroacetic acid (solvent A) and 0.1% (v/v) trichloroacetic acid with 90% (v/v) acetonitrile (solvent B). A linear gradient from 95% A/5% B to 50% A/50% B was used with a flow rate of 1 mL/min, a sample volume of 10 μL, a column temperature of 35 °C, and a detection wavelength of 280 nm. Electrospray ionization mass spectrometry (ESI-MS) was used to compare the McC variant masses with the expected masses. The relationships between the relative abundances and the mass-to-charge ratios (m/z) of the ions were determined to confirm the identities of the experimentally produced McC variants.

[3] = Remaining amount by RP-HPLC after pepsin treatment; type: in vitro ADME; settings: isolated enzyme pepsin; pepsin treated for 3 h; read-out RP-HPLC; Table S2
Procedure: (§3) To test whether the variants were tolerant to trypsin or other digestive enzymes, the amount of the remaining McC and its analogues remaining was determined by RP-HPLC after trypsin, pepsin, and chymotrypsin treated for 3 h (Table S2), and the inhibition zones of trypsin-treated variants were tested using the same method (Table 2).

Yej^+rimL^− strain [4] = type: cell-based; settings: HPLC-purified variants; microdilution in LB, 96-well; 0.125 to 100 µg/mL; 1.0 × 10^5 CFU/mL; 37 °C 24 h; absorbance 600 nm; triplicate
Procedure: To accurately characterize the bacteriostatic abilities of the variants, the MICs of the pure McC variants toward the McCsensitive strain Yej^+rimL^− were determined. The MICs of all variants were lower than that of wild-type McC. From smallest to largest MIC, the above five variants were in the following order: R2A, R2T, R2Q, R2S, and R2H. […] Although the diameter of the inhibitory zone of R2M was smaller than those of the above five variants, the bacteriostatic ability of R2M was second only to R2T/R2Q, and the MIC was 50 μg/mL.
as §2

[5] = Remaining amount by RP-HPLC after chymotrypsin treatment; type: in vitro ADME; settings: isolated enzyme chymotrypsin; chymotrypsin treated for 3 h; read-out RP-HPLC; Table S2
Procedure: as §3

E. coli K88 = test: microbe, parasite or virus in culture; type: cell-based; settings: agar diffusion; for antimicrobial activity after trypsin treatment, K88 / Diameters of the inhibition zones, Trypsin-Treated Group, K88: supernatant treated with trypsin 50 μg/mL, 37 °C, 3 h; for Diameters of the inhibition zones, Trypsin-Untreated Group, K88: 200 μL fermentation supernatant, 1 × 10^5 CFU/mL, 4 °C 1 h then 37 °C 24 h, chloramphenicol 100 μL of 0.25 μg/mL; for Diameters of the inhibition zones, Trypsin-Untreated Group, K88 / Diameters of the inhibition zones, Trypsin-Treated Group, K88: dash = no zone; for Diameters of the inhibition zones, Trypsin-Treated Group, K88: pH 6.8, 37 °C 24 h
Procedure: as §1, §2

pepsin = test: Remaining amount by RP-HPLC after pepsin treatment; type: in vitro ADME; settings: pepsin (isolated protease); pepsin treated for 3 h; read-out RP-HPLC; Table S2
Procedure: as §3

chymotrypsin = test: Remaining amount by RP-HPLC after chymotrypsin treatment; type: in vitro ADME; settings: chymotrypsin (isolated protease); chymotrypsin treated for 3 h; read-out RP-HPLC; Table S2
Procedure: as §3

SMILES | antimicrobial activity of mccA substitution variants (indicator bacteria) | bacteriostatic activity after trypsin treatment, Yej^+rimL^− (Yej^+rimL^− strain [1]) | Diameters of the inhibition zones, Trypsin-Untreated Group, Yej^+rimL^− (Yej^+rimL^− strain [1]) [mm] | Diameters of the inhibition zones, Trypsin-Treated Group, Yej^+rimL^− (Yej^+rimL^− strain [1]) [mm] | Retention Time [2] [min] | remaining at 3 h [3] [%] | MIC (Yej^+rimL^− strain [4]) [µg/mL] | remaining at 3 h [5] [%] | antimicrobial activity after trypsin treatment, K88 (E. coli K88) | Diameters of the inhibition zones, Trypsin-Untreated Group, K88 (E. coli K88) [mm] | Diameters of the inhibition zones, Trypsin-Treated Group, K88 (E. coli K88) [mm] | remaining at 3 h (pepsin) [%] | remaining at 3 h (chymotrypsin) [%] | bacteriostatic effect on indicator strain K88 (E. coli K88; fermentation supernatant, not trypsin-treated)
CSCC[C@H](NC=O)C(=O)N[C@@H](C)C(=O)N[C@H](C(=O)NCC(=O)N[C@@H](CC(N)=O)C(=O)N[C@@H](C)C(=O)N[C@@H](CC(=O)O)C(=O)NP(=O)(OCCCN)OC[C@H]1O[C@@H](n2cnc3c(N)ncnc32)[C@H](O)[C@@H]1O)[C@@H](C)O (stereo partly drawn) [R2A] (HELM PEPTIDE1{[O=C[*:2]].M.A.T.G.N.A.[NCCCOP(=O)(NC(=O)[C@H](CC(=O)O)N[*:1])OC[C@H]1O[C@@H](n2cnc3c(N)ncnc32)[C@H](O)[C@@H]1O]}$$$$V2.0) | bacteriostatic | exhibited antibacterial effects | 21.82 | 19.07 | 17.167 | 92.2 ± 1.04 | 12.5 (≈ 11.4 µM) | 42.2 ± 0.86 | retained their antimicrobial activity | 16.53 | 11.96 |  |  | 
CSCC[C@H](NC=O)C(=O)N[C@@H](CS)C(=O)N[C@H](C(=O)NCC(=O)N[C@@H](CC(N)=O)C(=O)N[C@@H](C)C(=O)N[C@@H](CC(=O)O)C(=O)NP(=O)(OCCCN)OC[C@H]1O[C@@H](n2cnc3c(N)ncnc32)[C@H](O)[C@@H]1O)[C@@H](C)O (stereo partly drawn) [R2C] (HELM PEPTIDE1{[O=C[*:2]].M.C.T.G.N.A.[NCCCOP(=O)(NC(=O)[C@H](CC(=O)O)N[*:1])OC[C@H]1O[C@@H](n2cnc3c(N)ncnc32)[C@H](O)[C@@H]1O]}$$$$V2.0) |  |  |  |  |  |  |  |  |  |  |  | 82.5 ± 0.98 | 40.9 ± 1.22 | no bacteriostatic effects
CSCC[C@H](NC=O)C(=O)N[C@@H](Cc1c[nH]cn1)C(=O)N[C@H](C(=O)NCC(=O)N[C@@H](CC(N)=O)C(=O)N[C@@H](C)C(=O)N[C@@H](CC(=O)O)C(=O)NP(=O)(OCCCN)OC[C@H]1O[C@@H](n2cnc3c(N)ncnc32)[C@H](O)[C@@H]1O)[C@@H](C)O (stereo partly drawn) [R2H] (HELM PEPTIDE1{[O=C[*:2]].M.H.T.G.N.A.[NCCCOP(=O)(NC(=O)[C@H](CC(=O)O)N[*:1])OC[C@H]1O[C@@H](n2cnc3c(N)ncnc32)[C@H](O)[C@@H]1O]}$$$$V2.0) | bacteriostatic | exhibited antibacterial effects | 18.39 | 15.92 | 16.872 | 82.29 ± 0.52 | >100 | 42.7 ± 0.69 | retained their antimicrobial activity | 15.55 | 11.99 |  |  | 
CSCC[C@H](NC=O)C(=O)N[C@@H](CCSC)C(=O)N[C@H](C(=O)NCC(=O)N[C@@H](CC(N)=O)C(=O)N[C@@H](C)C(=O)N[C@@H](CC(=O)O)C(=O)NP(=O)(OCCCN)OC[C@H]1O[C@@H](n2cnc3c(N)ncnc32)[C@H](O)[C@@H]1O)[C@@H](C)O (stereo partly drawn) [R2M] (HELM PEPTIDE1{[O=C[*:2]].M.M.T.G.N.A.[NCCCOP(=O)(NC(=O)[C@H](CC(=O)O)N[*:1])OC[C@H]1O[C@@H](n2cnc3c(N)ncnc32)[C@H](O)[C@@H]1O]}$$$$V2.0) | loss of antimicrobial activity | exhibited antibacterial effects | 21.57 | 14.31 | 19.622 | 88.7 ± 0.93 | 50 (≈ 43.4 µM) | 43.8 ± 0.68 |  | 12.37 |  |  |  | 
CSCC[C@H](NC=O)C(=O)N[C@@H](CO)C(=O)N[C@H](C(=O)NCC(=O)N[C@@H](CC(N)=O)C(=O)N[C@@H](C)C(=O)N[C@@H](CC(=O)O)C(=O)NP(=O)(OCCCN)OC[C@H]1O[C@@H](n2cnc3c(N)ncnc32)[C@H](O)[C@@H]1O)[C@@H](C)O (stereo partly drawn) [R2S] (HELM PEPTIDE1{[O=C[*:2]].M.S.T.G.N.A.[NCCCOP(=O)(NC(=O)[C@H](CC(=O)O)N[*:1])OC[C@H]1O[C@@H](n2cnc3c(N)ncnc32)[C@H](O)[C@@H]1O]}$$$$V2.0) | bacteriostatic | exhibited antibacterial effects | 17.35 | 16.34 | 17.004 | 84.33 ± 0.77 | 100 (≈ 90.2 µM) | 41.3 ± 1.27 | retained their antimicrobial activity | 13.46 | 9.44 |  |  | 
